For 44 compounds, inhibition results are on record in ChEMBL document CHEMBL3875145, “Highly potent anti-leishmanial derivatives of hederagenin, a triperpenoid from Sapindus saponaria L” (Eur J Med Chem, 2016).

What is called inhibition is the change of the read-out against control, counted positive when it falls.

The structures appear in SMILES notation.

The test system of this assay is Leishmania infantum. The assay is described as follows: Antiparasitic activity against Leishmania infantum MHOM/BR/70/BH46 promastigotes infected in dog DH82 cells at 1000 uM after 48 hrs by ELISA method. The settings on record: MHOM/BR/70/BH46, DH82, 48 h. The format is functional. In general terms: An ELISA detects its analyte on a solid surface through an enzyme-linked reagent.
Consider `CC1(C)CC[C@]2(C(=O)OCc3ccccc3)CC[C@]3(C)C(=CC[C@@H]4[C@@]5(C)CC[C@H](O)[C@@](C)(CO)[C@@H]5CC[C@]43C)[C@@H]2C1`, for which the inhibition at 1000 µM worked out at 30.2%.

Compound `CC1(C)CC[C@]2(C(=O)OCc3ccccc3[N+](=O)[O-])CC[C@]3(C)C(=CC[C@@H]4[C@@]5(C)CC[C@H](O)[C@@](C)(CO)[C@@H]5CC[C@]43C)[C@@H]2C1` yielded an inhibition at 1000 µM of 71.7%.

`CC1(C)CC[C@]2(C(=O)OCc3ccccc3Br)CC[C@]3(C)C(=CC[C@@H]4[C@@]5(C)CC[C@H](O)[C@@](C)(CO)[C@@H]5CC[C@]43C)[C@@H]2C1`: the inhibition at 1000 µM is 40%.

In turn, `CC1(C)CC[C@]2(C(=O)OCc3ccccc3F)CC[C@]3(C)C(=CC[C@@H]4[C@@]5(C)CC[C@H](O)[C@@](C)(CO)[C@@H]5CC[C@]43C)[C@@H]2C1` gave an inhibition at 1000 µM of 26%.

In the case of `CC1(C)CC[C@]2(C(=O)OCc3ccc(F)cc3F)CC[C@]3(C)C(=CC[C@@H]4[C@@]5(C)CC[C@H](O)[C@@](C)(CO)[C@@H]5CC[C@]43C)[C@@H]2C1`, the inhibition at 1000 µM was 16%.

Consider `CC1(C)CC[C@]2(C(=O)OCc3c(F)cccc3F)CC[C@]3(C)C(=CC[C@@H]4[C@@]5(C)CC[C@H](O)[C@@](C)(CO)[C@@H]5CC[C@]43C)[C@@H]2C1`, for which at 1000 µM the inhibition was 25.2%.

Regarding `CC1(C)CC[C@]2(C(=O)OCc3ccccc3Cl)CC[C@]3(C)C(=CC[C@@H]4[C@@]5(C)CC[C@H](O)[C@@](C)(CO)[C@@H]5CC[C@]43C)[C@@H]2C1`, the inhibition at 1000 µM worked out at 15.8%.

On to `Cc1ccccc1COC(=O)[C@]12CCC(C)(C)C[C@H]1C1=CC[C@@H]3[C@@]4(C)CC[C@H](O)[C@@](C)(CO)[C@@H]4CC[C@@]3(C)[C@]1(C)CC2`, for which the inhibition at 1000 µM was found to be 39%.

Take `CC1(C)CC[C@]2(C(=O)OCc3cccc(Cl)c3)CC[C@]3(C)C(=CC[C@@H]4[C@@]5(C)CC[C@H](O)[C@@](C)(CO)[C@@H]5CC[C@]43C)[C@@H]2C1`: the inhibition at 1000 µM worked out at 23%.

For the compound `C#CCOC(=O)[C@]12CCC(C)(C)C[C@H]1C1=CC[C@@H]3[C@@]4(C)CC[C@H](O)[C@@](C)(CO)[C@@H]4CC[C@@]3(C)[C@]1(C)CC2`, at 1000 µM the inhibition was 19%.

For `CC1(C)CC[C@]2(C(=O)OCc3ccc([N+](=O)[O-])cc3)CC[C@]3(C)C(=CC[C@@H]4[C@@]5(C)CC[C@H](O)[C@@](C)(CO)[C@@H]5CC[C@]43C)[C@@H]2C1`, at 1000 µM the inhibition was 28%.

`Cc1ccc(COC(=O)[C@]23CCC(C)(C)C[C@H]2C2=CC[C@@H]4[C@@]5(C)CC[C@H](O)[C@@](C)(CO)[C@@H]5CC[C@@]4(C)[C@]2(C)CC3)cc1` yielded an inhibition at 1000 µM of 44%.

`CC1(C)CC[C@]2(C(=O)OCc3ccc(F)cc3)CC[C@]3(C)C(=CC[C@@H]4[C@@]5(C)CC[C@H](O)[C@@](C)(CO)[C@@H]5CC[C@]43C)[C@@H]2C1` had an inhibition at 1000 µM of 57%.

As for `CC1(C)CC[C@]2(C(=O)OCc3ccc(Cl)cc3)CC[C@]3(C)C(=CC[C@@H]4[C@@]5(C)CC[C@H](O)[C@@](C)(CO)[C@@H]5CC[C@]43C)[C@@H]2C1`, the inhibition at 1000 µM turned out to be 53%.

Regarding `CC1(C)CC[C@]2(C(=O)OCc3cccc(Br)c3)CC[C@]3(C)C(=CC[C@@H]4[C@@]5(C)CC[C@H](O)[C@@](C)(CO)[C@@H]5CC[C@]43C)[C@@H]2C1`, at 1000 µM the inhibition was 20%.

For the compound `CC1(C)CC[C@]2(C(=O)NCc3ccccc3)CC[C@]3(C)C(=CC[C@@H]4[C@@]5(C)CC[C@H](O)[C@@](C)(CO)[C@@H]5CC[C@]43C)[C@@H]2C1`, the inhibition at 1000 µM stood at 8.2%.

Compound `CC1(C)CC[C@]2(C(=O)NCCN3CCCCC3)CC[C@]3(C)C(=CC[C@@H]4[C@@]5(C)CC[C@H](O)[C@@](C)(CO)[C@@H]5CC[C@]43C)[C@@H]2C1` returned an inhibition at 1000 µM of 0%.

With `CC1(C)CC[C@]2(C(=O)NCCN3CCCC3)CC[C@]3(C)C(=CC[C@@H]4[C@@]5(C)CC[C@H](O)[C@@](C)(CO)[C@@H]5CC[C@]43C)[C@@H]2C1`, the inhibition at 1000 µM was 0%.

Turning to `C#CCNC(=O)[C@]12CCC(C)(C)C[C@H]1C1=CC[C@@H]3[C@@]4(C)CC[C@H](O)[C@@](C)(CO)[C@@H]4CC[C@@]3(C)[C@]1(C)CC2`, at 1000 µM the inhibition was 15%.

Regarding `CC1(C)CC[C@]2(C(=O)NCCN3CCOCC3)CC[C@]3(C)C(=CC[C@@H]4[C@@]5(C)CC[C@H](O)[C@@](C)(CO)[C@@H]5CC[C@]43C)[C@@H]2C1`, the inhibition at 1000 µM was determined as 7%.

Take `CC1(C)CC[C@]2(C(=O)OCc3cn(Cc4c(Cl)cccc4Cl)nn3)CC[C@]3(C)C(=CC[C@@H]4[C@@]5(C)CC[C@H](O)[C@@](C)(CO)[C@@H]5CC[C@]43C)[C@@H]2C1`: at 1000 µM the inhibition was 44.5%.

On to `CC1(C)CC[C@]2(C(=O)NCc3cn(Cc4ccccc4F)nn3)CC[C@]3(C)C(=CC[C@@H]4[C@@]5(C)CC[C@H](O)[C@@](C)(CO)[C@@H]5CC[C@]43C)[C@@H]2C1`, for which the inhibition at 1000 µM came out at 31%.

The compound `CC1(C)CC[C@]2(C(=O)NCc3cn(Cc4cccc(Br)c4)nn3)CC[C@]3(C)C(=CC[C@@H]4[C@@]5(C)CC[C@H](O)[C@@](C)(CO)[C@@H]5CC[C@]43C)[C@@H]2C1` returned an inhibition at 1000 µM of 33.3%.

The compound `CC1(C)CC[C@]2(C(=O)OCc3cn(Cc4ccccc4)nn3)CC[C@]3(C)C(=CC[C@@H]4[C@@]5(C)CC[C@H](O)[C@@](C)(CO)[C@@H]5CC[C@]43C)[C@@H]2C1` displayed an inhibition at 1000 µM of 23.5%.

`CC1(C)CC[C@]2(C(=O)OCc3cn(Cc4ccccc4F)nn3)CC[C@]3(C)C(=CC[C@@H]4[C@@]5(C)CC[C@H](O)[C@@](C)(CO)[C@@H]5CC[C@]43C)[C@@H]2C1` showed an inhibition at 1000 µM of 48.3%.

The compound `CC1(C)CC[C@]2(C(=O)OCc3cn(Cc4ccc(Br)cc4)nn3)CC[C@]3(C)C(=CC[C@@H]4[C@@]5(C)CC[C@H](O)[C@@](C)(CO)[C@@H]5CC[C@]43C)[C@@H]2C1` yielded an inhibition at 1000 µM of 27.7%.

In turn, `CC1(C)CC[C@]2(C(=O)OCc3cn(Cc4ccc([N+](=O)[O-])cc4)nn3)CC[C@]3(C)C(=CC[C@@H]4[C@@]5(C)CC[C@H](O)[C@@](C)(CO)[C@@H]5CC[C@]43C)[C@@H]2C1` gave an inhibition at 1000 µM of 17%.

In turn, `CC1(C)CC[C@]2(C(=O)NCc3cn(Cc4cccc([N+](=O)[O-])c4)nn3)CC[C@]3(C)C(=CC[C@@H]4[C@@]5(C)CC[C@H](O)[C@@](C)(CO)[C@@H]5CC[C@]43C)[C@@H]2C1` showed an inhibition at 1000 µM of 25.4%.

As to `CC1(C)CC[C@]2(C(=O)NCc3cn(Cc4ccc([N+](=O)[O-])cc4)nn3)CC[C@]3(C)C(=CC[C@@H]4[C@@]5(C)CC[C@H](O)[C@@](C)(CO)[C@@H]5CC[C@]43C)[C@@H]2C1`, the inhibition at 1000 µM was found to be 14%.

`CC1(C)CC[C@]2(C(=O)NCc3cn(Cc4ccccc4Cl)nn3)CC[C@]3(C)C(=CC[C@@H]4[C@@]5(C)CC[C@H](O)[C@@](C)(CO)[C@@H]5CC[C@]43C)[C@@H]2C1` had an inhibition at 1000 µM of 0%.

`CC1(C)CC[C@]2(C(=O)NCc3cn(Cc4ccc(F)cc4)nn3)CC[C@]3(C)C(=CC[C@@H]4[C@@]5(C)CC[C@H](O)[C@@](C)(CO)[C@@H]5CC[C@]43C)[C@@H]2C1` showed an inhibition at 1000 µM of 10.2%.

The compound `CC1(C)CC[C@]2(C(=O)OCc3cn(Cc4ccccc4Cl)nn3)CC[C@]3(C)C(=CC[C@@H]4[C@@]5(C)CC[C@H](O)[C@@](C)(CO)[C@@H]5CC[C@]43C)[C@@H]2C1` showed an inhibition at 1000 µM of 0%.

Turning to `CC1(C)CC[C@]2(C(=O)NCc3cn(Cc4cccc(Cl)c4)nn3)CC[C@]3(C)C(=CC[C@@H]4[C@@]5(C)CC[C@H](O)[C@@](C)(CO)[C@@H]5CC[C@]43C)[C@@H]2C1`, testing at 1000 µM gave an inhibition of 31.1%.

`CC1(C)CC[C@]2(C(=O)OCc3cn(Cc4c(F)cccc4F)nn3)CC[C@]3(C)C(=CC[C@@H]4[C@@]5(C)CC[C@H](O)[C@@](C)(CO)[C@@H]5CC[C@]43C)[C@@H]2C1` came in with an inhibition at 1000 µM of 34%.

With `CC1(C)CC[C@]2(C(=O)OCc3cn(Cc4ccccc4Br)nn3)CC[C@]3(C)C(=CC[C@@H]4[C@@]5(C)CC[C@H](O)[C@@](C)(CO)[C@@H]5CC[C@]43C)[C@@H]2C1`, 1000 µM produced 34.6% inhibition.

`CC1(C)CC[C@]2(C(=O)NCc3cn(Cc4ccccc4)nn3)CC[C@]3(C)C(=CC[C@@H]4[C@@]5(C)CC[C@H](O)[C@@](C)(CO)[C@@H]5CC[C@]43C)[C@@H]2C1`: the inhibition at 1000 µM is 11%.

`CC1(C)CC[C@]2(C(=O)OCc3cn(Cc4cccc(Cl)c4)nn3)CC[C@]3(C)C(=CC[C@@H]4[C@@]5(C)CC[C@H](O)[C@@](C)(CO)[C@@H]5CC[C@]43C)[C@@H]2C1`: the inhibition at 1000 µM is 51.3%.

Turning to `CC1(C)CC[C@]2(C(=O)OCc3cn(Cc4cccc([N+](=O)[O-])c4)nn3)CC[C@]3(C)C(=CC[C@@H]4[C@@]5(C)CC[C@H](O)[C@@](C)(CO)[C@@H]5CC[C@]43C)[C@@H]2C1`, the inhibition at 1000 µM worked out at 26.3%.

For the compound `CC1(C)CC[C@]2(C(=O)OCc3cn(Cc4ccc(Cl)cc4)nn3)CC[C@]3(C)C(=CC[C@@H]4[C@@]5(C)CC[C@H](O)[C@@](C)(CO)[C@@H]5CC[C@]43C)[C@@H]2C1`, the inhibition at 1000 µM amounted to 35%.

With `CC1(C)CC[C@]2(C(=O)NCc3cn(Cc4ccccc4Br)nn3)CC[C@]3(C)C(=CC[C@@H]4[C@@]5(C)CC[C@H](O)[C@@](C)(CO)[C@@H]5CC[C@]43C)[C@@H]2C1`, the inhibition at 1000 µM amounted to 4.2%.

Consider `CC1(C)CC[C@]2(C(=O)OCc3cn(Cc4ccc(F)cc4)nn3)CC[C@]3(C)C(=CC[C@@H]4[C@@]5(C)CC[C@H](O)[C@@](C)(CO)[C@@H]5CC[C@]43C)[C@@H]2C1`, for which at 1000 µM the inhibition was 33.3%.

The compound `CC1(C)CC[C@]2(C(=O)NCc3cn(Cc4ccc(Br)cc4)nn3)CC[C@]3(C)C(=CC[C@@H]4[C@@]5(C)CC[C@H](O)[C@@](C)(CO)[C@@H]5CC[C@]43C)[C@@H]2C1` registered an inhibition at 1000 µM of 27%.

For the compound `COC(=O)C(NC(=O)[C@]12CCC(C)(C)C[C@H]1C1=CC[C@@H]3[C@@]4(C)CC[C@H](O)[C@@](C)(CO)[C@@H]4CC[C@@]3(C)[C@]1(C)CC2)c1ccccc1` (some centres undefined), testing at 1000 µM gave an inhibition of 60%.

`CC1(C)CC[C@]2(C(=O)NC(Cc3c[nH]c4ccccc34)C(=O)O)CC[C@]3(C)C(=CC[C@@H]4[C@@]5(C)CC[C@H](O)[C@@](C)(CO)[C@@H]5CC[C@]43C)[C@@H]2C1` (some centres undefined) yielded an inhibition at 1000 µM of 50%.
